Where a SMILES comes first, the peptide text is derived from it. The star is where a group is joined. αGalNAc = CC(=O)N[C@@H]1[C@@H](O)[C@@H](O)[C@@H](CO)O[C@@H]1*
Legend:
[1] = target: T1, GalNAc-T2 (Homo sapiens, UniProt Q10471); assay: X-ray crystal structures of GalNAc-T2 complexes; assay type: binding; for Rg of crystal complex: values in Å
T1 construct: made in house
Experimental: In all cases, crystals were grown by hanging drop vapour diffusion at 18 °C. […] The protein solution consisting of 3.5 mg ml^−1 of GalNAcT-2, 5 mM UDP, 5 mM MnCl2 and 6 mM MUC5AC-13 in the same buffer described above was mixed with the precipitant solution containing 1.6 M ammonium sulfate, 100 mM sodium chloride and 100 mM HEPES (pH 7). The crystals were cryoprotected in saturated lithium sulfate and frozen in a nitrogen gas stream cooled to 100 K.
All data were processed and scaled using the XDS package[34] and CCP4 software. The crystal structures were solved by molecular replacement with Phaser[35] and using the PDB entry 4D0T as the template. Initial phases were further improved by cycles of manual model building in Coot[36] and refinement with REFMAC5 (ref. [37]). The AUs of the tetragonal crystals contain 1 molecule of GalNAc-T2 (Fig. 1). Coordinates and structure factors have been deposited in the Worldwide Protein Data Bank (wwPDB, and see Table 1 for the pdb codes).

[2] = target: T1, GalNAc-T2; assay: SAXS with Ensemble Optimization Method: GalNAc-T2 conformations/oligomers with ligands; settings: for Rg from p(r) (GNOM) / Dmax / Rg (Guinier): GalNAc-T2 5 mg/ml, 25 mM TRIS pH 7.5, 10 mM MnCl2, 10 °C; for Dmax: maximum intramolecular distance, GNOM; for Dmax: values in Å; for Rg (Guinier): values in Å; for Rg from p(r) (GNOM): values in Å
Experimental: SAXS measurements were performed at the European Molecular Biology Laboratory on the storage ring PETRA-III (DESY-Hamburg) on the P12 beamline equipped with a robotic sample changer and a PILATUS-2M. The analysis of the SAXS data was performed by using the EOM[31]. Additional details are in Supplementary Methods. […]
Small-angle X-ray scattering (SAXS) and data analysis
All experiments were performed in a buffer consisting of 25 mM TRIS pH 7.5, 10 mM MnCl2. The first set of experiments contained three different protein concentrations: 10 mg/ml (180 µM), 5 mg/ml (90 µM), 2.5 mg/ml (45 µM) and 1 […]
mg/ml (18 µM). The protein was measured alone and in the presence of ten times molar excess of UDP, UDP-GalNAc, UDP-EA2 peptide, MUC5AC-13, UDP-MUC5AC-13, MUC5AC, and UDP-MUC5AC. The second set of experiments was carried out with the protein concentration fixed at 5 mg/ml, and increasing concentrations of UDP (450 µM, 900 µM, 1.8 mM, 4.5 mM and 9 mM). The concentration of MUC5AC-13 was also changed as follows: 1 mM, 5 mM and 7.5 […]
Synchrotron SAXS measurements were performed at the European Molecular
Biology Laboratory (EMBL) on the storage ring PETRA-III (DESY-Hamburg) on the P12 beamline equipped with a robotic sample changer and a PILATUS-2M. The sample-detector distance was 3.1 m. The scattering intensity, I(s), was recorded at 10 °C in a momentum transfer range of 0.007<s<0.444 Å -1, where s = (4πsinθ )/λ , 2θ is the scattering angle, and λ = 1.24 Å is the X-ray wavelength. Twenty consecutive 0.05 second measurements were performed for protein samples and buffers to monitor for radiation damage that were subsequently averaged (no systematic radiation effects were observed). Buffer scattering profiles were subtracted from the sample ones using standard procedures 8. The values of the forward scattering, I(0), and radii of gyration, Rg, were calculated from the experimental SAXS patterns using Guinier’s approximation (Supplementary Fig. 4 and 5), I(s) = I(0)exp(-s2Rg2/3), which is valid in the range sRg < 1.3.
Structural analysis of the SAXS data was performed using the Ensemble Optimization Method (EOM)9. A pool of 10,000 monomeric structures of GalNac-T2 was constructed with the program RanCh9 by connecting three-dimensional structures of the catalytic and the lectin domains, extracted from the crystallographic structure 2FFU, with a flexible linker of 12 residues with random coil conformations. To […]
properly describe the data, these monomeric ensembles were enriched with 100 equivalent curves corresponding to one dimeric arrangement. As we tested three dimers, we built three different ensembles with the same 10,000 monomeric conformations and 100 copies of each one of the dimers. The three different dimers used for SAXS are shown in Supplementary Fig. 3c and correspond to three different crystal structures obtained under different conditions.
The scattering profiles of all members of the pool were computed with the program CRYSOL using standard parameters10. The pool of structures/profiles was submitted to the genetic algorithm (GA) with the aim to select a subensemble of 50 structures/curves with the capacity to collectively describe the experimental SAXS […]
was repeated 200 times starting from different randomly selected subensembles, and the resulting solutions were analysed together. The same pool was used to describe all the measured data. Results were quantitatively analysed by displaying the Rg distributions of the selected ensembles and the relative population of monomeric and dimeric species.
Three different dimeric arrangements were introduced individually in the pool. In all three cases the dimers display similar contacts between the lectin domains and the lectin domain of one monomer with the catalytic domain of a second monomer (Supplementary Fig. 3c). We can distinguish the crystallographic dimers by the buried area parameter inferred from the PISA server. The dimers present in the crystal structure of GalNAc-T2-UDP complex (PDB entry 2FFV) are the most compact ones […]

[3] = target: T1, GalNAc-T2; settings: cited from earlier work
Text: Among other conclusions it was reported that the glycosylation ...

[4] = ligand molar ratio GalNAc-T2:ligand 1:10
[5] = ligand molar ratio GalNAc-T2:ligand 1:20

T1 sequence (Q10471 75-571 limits assumed): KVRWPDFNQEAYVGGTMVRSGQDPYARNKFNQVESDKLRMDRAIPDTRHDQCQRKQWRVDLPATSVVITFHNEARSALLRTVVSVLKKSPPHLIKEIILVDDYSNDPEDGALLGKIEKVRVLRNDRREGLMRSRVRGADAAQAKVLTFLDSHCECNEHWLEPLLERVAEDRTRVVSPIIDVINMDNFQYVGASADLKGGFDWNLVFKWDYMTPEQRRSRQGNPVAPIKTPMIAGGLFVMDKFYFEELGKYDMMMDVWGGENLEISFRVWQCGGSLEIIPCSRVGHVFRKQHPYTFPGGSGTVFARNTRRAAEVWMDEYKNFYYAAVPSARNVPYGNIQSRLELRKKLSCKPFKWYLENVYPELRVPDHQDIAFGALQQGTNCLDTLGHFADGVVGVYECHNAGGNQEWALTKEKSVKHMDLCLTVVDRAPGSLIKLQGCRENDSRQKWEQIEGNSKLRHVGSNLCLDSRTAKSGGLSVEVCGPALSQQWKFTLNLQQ

Row | Structure (SMILES) | Rg of crystal complex ([1]; GalNAc-T2-UDP-MUC5AC-13 complex) [Å] | form of GalNAc-T2 bound in crystal ([1]; co-crystallization with UDP and Mn+2, flexible loop conformation) | effect on GalNAc-T2 dimers (in words) ([2]; GalNAc-T2 fixed at 5 mg ml−1, increasing concentrations of peptide) | Rg from p(r) (GNOM) ([2]; ligand molar ratio 1:10) [Å] | Dmax ([2]; ligand molar ratio 1:10) [Å] | Rg from p(r) (GNOM) ([2]; ligand molar ratio 1:20) [Å] | Dmax ([2]; ligand molar ratio 1:20) [Å] | Rg (Guinier) [2, 4] [Å] | Rg (Guinier) [2, 5] [Å] | Rg (Guinier) ([2]; peptide + UDP (1:10)) [Å] | Rg from p(r) (GNOM) ([2]; peptide + UDP (1:10)) [Å] | Dmax ([2]; peptide + UDP (1:10)) [Å] | optimal glycosylation site ([3]; prior glycosylated site Thr13, ref 1 (supplement)) | glycosylation of further sites Ser5 and Thr9 ([3]; ref 1 (supplement)) | Rg from p(r) (GNOM) ([2]; ligand molar ratio 1:5) [Å] | Dmax ([2]; ligand molar ratio 1:5) [Å] | Rg from p(r) (GNOM) ([2]; ligand molar ratio 1:50) [Å] | Dmax ([2]; ligand molar ratio 1:50) [Å] | Rg (Guinier) ([2]; ligand molar ratio GalNAc-T2:ligand 1:5) [Å] | Rg (Guinier) ([2]; ligand molar ratio GalNAc-T2:ligand 1:50) [Å]
1 | CC(=O)NCC(=O)N[C@H](C(=O)N[C@H](C(=O)N1CCC[C@H]1C(=O)N[C@@H](CO)C(=O)N1CCC[C@H]1C(=O)N[C@H](C(=O)N1CCC[C@H]1C(=O)N[C@H](C(=O)N[C@H](C(=O)N[C@@H](CO)C(=O)N[C@H](C(=O)N[C@H](C(=O)N[C@@H](CO)C(=O)N[C@@H](C)C(N)=O)[C@@H](C)O[C@H]1O[C@H](CO)[C@H](O)[C@H](O)[C@H]1NC(C)=O)[C@@H](C)O)[C@@H](C)O)[C@@H](C)O)C(C)C)[C@@H](C)O)[C@@H](C)O [MUC5AC-13] (Ac-GTTPSPVPTTSTT(αGalNAc)SA-NH2; N-terminus assumed) | 26.41 | bound to an active form of GalNAc-T2 | dimers almost disappear from solution | 30.6 | 112 | 29.2 | 102 | 30.2±0.2 | 29.1±0.1 | 30.7±0.4 | 31.7 | 112 | optimally 10 residues N-terminal (Thr3) | not in an efficient manner | – | – | – | – | – | –
2 | O=c1ccn([C@@H]2O[C@H](COP(=O)(O)OP(=O)(O)O)[C@@H](O)[C@H]2O)c(=O)[nH]1 [UDP, uridine diphosphate, reference compound] | – | – | – | 35.0 | 123 | 34.5 | 122 | 34.4±0.3 | 34.0±0.2 | – | – | – | – | – | 34.3 | 121 | 36.0 | 129 | 32.7±0.3 | 36.0±0.3
